Results on one molecule are retold here after patent US10987316B2, “Compositions and methods for transdermal delivery of tertiary amine drugs” (priority 2013, dated 2021).

This data set is described as follows: In vitro flux of rivastigmine liquid across human skin only. It counts as in vitro ADME. The conditions noted are these: rivastigmine liquid infinite dose 0.5 ml/cm^2. As for the experimental part: The flux of rivatsigmine liquid (“infinite-dose” of 0.5 ml/cm^2) across systems prepared using different rate controlling membranes (with different vinyl acetate contents and different thicknesses) with or without a 5 mg/cm^2 silicone face adhesive was assessed in an in vitro flux study, as shown below.

For `CCN(C)C(=O)Oc1cccc([C@H](C)N(C)C)c1` [Rivastigmine, (S)-3-[1-(dimethylamino)ethyl]phenyl ethylmethylcarbamate], the “Rivastigmine steady-state flux, human skin only” value is given as 32 ± 14 μg/cm^2/hr.
